Data on 16 compounds can be found in US10822327B2, “2-substituted aromatic ring-pyrimidine derivative and preparation and application thereof” (ZHEJIANG UNIVERSITY, priority 2016, dated 2020).

SMILES strings stand for the structures.

For one test, the target named is T1, Chk1 protein kinase (Homo sapiens, UniProt O14757).
T1 sequence (O14757 1-476): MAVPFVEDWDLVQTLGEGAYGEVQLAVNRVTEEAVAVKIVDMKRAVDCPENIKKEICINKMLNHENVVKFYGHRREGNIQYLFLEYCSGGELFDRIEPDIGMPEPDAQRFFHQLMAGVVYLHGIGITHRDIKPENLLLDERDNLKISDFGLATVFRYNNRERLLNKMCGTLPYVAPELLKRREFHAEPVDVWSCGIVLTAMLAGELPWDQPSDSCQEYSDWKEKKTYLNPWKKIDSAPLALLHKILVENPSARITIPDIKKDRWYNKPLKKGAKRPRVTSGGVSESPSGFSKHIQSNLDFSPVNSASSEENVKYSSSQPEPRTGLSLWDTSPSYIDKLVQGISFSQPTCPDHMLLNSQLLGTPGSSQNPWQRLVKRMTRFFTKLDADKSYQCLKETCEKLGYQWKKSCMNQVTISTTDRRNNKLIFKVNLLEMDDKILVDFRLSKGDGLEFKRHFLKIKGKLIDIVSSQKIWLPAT
Kind of test: Chk1 enzyme inhibitory activity, ADP-Glo kit. The test is classed as biochemical. Conditions: bounds, unit μM. The protocol:
Saurosporine is used as a positive control, the Chk1 enzyme inhibitory activity (IC50) was evaluated using the ADP-Glo kit. […] The phosphorylation process consumes ATP. After the reaction, ADP-Glo™ Reagent consumes the remaining ATP, wherein ADP produced during the reaction can be transformed to ATP by ADP-Glo Detection Reagent. ATP acts as a substrate for the Ultra-Glo™ luciferase catalytic reaction, producing an optical signal. The test compound was dissolved in DMSO to prepare a 10 mM stock solution and diluted to 12 different concentrations in a certain ratio for testing. 1 μL of the test compound and 2 μL of 2.5× Chk1 kinase were added to each well of a 384-well plate, and 2 μL of 1× buffer was added to the control group. After incubation for 10 min at room temperature, 2 μL of 2.5× substrate was added. Ater incubation for 1 h at 37° C., 5 μL. of ADP-Glo™ Reagent was added and the reaction was stopped before incubating again for 1 h at 37° C. 10 μL of ADP-Glo Detection Reagent was added before incubating for 30 min at 37° C., and three parallel wells were set for each sample. […] by luminescence fluorescence microplate reader, and data were calculated using GraphPad Prism 5 software to calculate IC50 values.
(ADP-Glo turns the ADP formed in a reaction into a luminescent signal.)

Test [1] deals with human colon cancer cell HCT116. Kind of test: MTS in vitro proliferation inhibition, HCT116. It counts as cell-based. The conditions noted are these: HCT-116, 72 hours, average of three experiments. The source says: (§1) Cell lines: human multiple myeloma cells RPMI 8226, human mantle cell lymphoma cells Mino, Jeko-1, human lymphoma cells Romas, human acute monocytic leukemia cells MV-4-11, human breast cancer cells MCF-7 Human lung cancer cell A549, human prostate cancer cell LnCAP, human gastric cancer cell BGC-823, human colon cancer cell HCT116, Colo205, and human ovarian cancer cell OVCAR-8. Experimental method: using MTS method for in vitro proliferation Inhibitory activity (IC50) of compounds against different tumor cell lines.
(§2) The cells in the logarithmic growth phase were trypsinized, counted, and seeded at a density of 1×10^4 cells/well in a 96-well plate at 100 μL per well before placing in a 37° C. incubator containing 5% CO2 overnight. Six concentration gradients were set for each compound, and three sets of duplicate wells were set for each concentration. After the addition, the cells were cultured for 72 hours, and 20 μL of MTS was added. After incubating for 2 hours at 37° C., the absorbance at 490 nm (L1) was measured with a SpectraMAX 340 microplate reader. The reference wavelength was 690 nm (L2), and the (L1-L2) value was plotted against the different concentrations of the inhibitor. The half inhibitory concentration IC50 was fitted by the formula.

In test [2] the test system is human mantle cell lymphoma cells Jeko-1. The test is described as follows: MTS in vitro proliferation inhibition, Jeko-1. It counts as cell-based. Conditions: 72 hours, average of three experiments.
Excerpt: as §1, §2

Test [3] deals with human lymphoma cells Romas. The test is described as follows: MTS in vitro proliferation inhibition, Romas. The test is classed as cell-based. Conditions: 72 hours, average of three experiments.
Excerpt: as §1, §2

The test system of test [4] is human acute monocytic leukemia cells MV-4-11. The test is described as follows: MTS in vitro proliferation inhibition, MV-4-11. The test is classed as cell-based. Conditions: MV4-11, 72 hours, average of three experiments.
Excerpt: as §1, §2

Test [5] deals with human multiple myeloma cells RPMI 8226. Kind of test: MTS in vitro proliferation inhibition, RPMI 8226. The test is classed as cell-based. Conditions: 72 hours, average of three experiments, read-out: IC50(μM) RPMI8226.
Excerpt: as §1, §2

Test [6] concerns human breast cancer cells MCF-7. The test is described as follows: MTS in vitro proliferation inhibition, MCF-7. It counts as cell-based. Conditions: MCF7, 72 hours, average of three experiments.
Excerpt: as §1, §2

The test system of test [7] is human prostate cancer cell LnCAP. Kind of test: MTS in vitro proliferation inhibition, LnCAP. It counts as cell-based. The conditions noted are these: 72 hours, average of three experiments.
Excerpt: as §1, §2

The test system of test [8] is human gastric cancer cell BGC-823. The test is described as follows: MTS in vitro proliferation inhibition, BGC-823. It counts as cell-based. Conditions: 72 hours, average of three experiments.
Excerpt: as §1, §2

Test [9] concerns human colon cancer cell Colo205. The test is described as follows: MTS in vitro proliferation inhibition, Colo205. It counts as cell-based. Conditions: COLO 205, 72 hours, average of three experiments.
Excerpt: as §1, §2

Test [10] deals with Human lung cancer cell A549. Kind of test: MTS in vitro proliferation inhibition, A549. It counts as cell-based. The conditions noted are these: 72 hours, average of three experiments.
Excerpt: as §1, §2

In test [11] the test system is human mantle cell lymphoma cells Mino. The test is described as follows: MTS in vitro proliferation inhibition, Mino. It counts as cell-based. Conditions: 72 hours, average of three experiments.
Excerpt: as §1, §2

Test [12] relates to human ovarian cancer cell OVCAR-8. The test is described as follows: MTS in vitro proliferation inhibition, OVCAR-8. The conditions noted are these: 72 hours, average of three experiments. The test is classed as cell-based.
Excerpt: as §1, §2

A word on the IC50: it is the midpoint of a concentration-inhibition curve.

As to `Cc1cc(Nc2ncc(-c3cnn(C)c3)c(NC3CCNCC3)n2)n[nH]1` [Compound 1, 5-(1-methyl-1H-pyrazol-4-yl)-N^2-(3-methylpyrazol-5-yl)-N^4-(piperidin-4-yl)-2,4-diaminopyrimidine], at Chk1 protein kinase, the half-maximal inhibitory concentration (IC50) is greater than 10 µM.
Same read-out and setting: in the case of `Cc1cc(Nc2ncc(-c3cnn(C)c3)c(NC3CCNCC3)n2)no1` [Compound 2, 5-(1-methyl-1H-pyrazol-4-yl)-N^2-(5-methyloxazol-3-yl)-N^4-(piperidin-4-yl)-2,4-diaminopyrimidine] it was greater than 10 µM; in that of `Cc1cc(Nc2ncc(-c3cccs3)c(NC3CCNCC3)n2)n[nH]1` [Compound 3, 5-(thien-2-yl)-N^2-(5-methylpyrazol-3-yl)-N^4-(piperidin-4-yl)-2,4-diaminopyrimidine], greater than 10 µM.
On the same count and under the same terms, in the case of `Cc1cc(Nc2ncc(-c3cccs3)c(NC3CCNCC3)n2)no1` [Compound 4, 5-(thien-2-yl)-N^2-(5-methyloxazol-3-yl)-N^4-(piperidin-4-yl)-2,4-diaminopyrimidine] it was greater than 10 µM.
On the same count and under the same terms, the result for `Cc1cc(Nc2ncc(-c3ccco3)c(NC3CCNCC3)n2)n[nH]1` [Compound 5, 5-(furan-2-yl)-N^2-(5-methylpyrazol-3-yl)-N^4-(piperidin-4-yl)-2,4-diaminopyrimidine] reads greater than 10 µM; that for `Cc1cc(Nc2ncc(-c3ccco3)c(NC3CCNCC3)n2)no1` [Compound 6, 5-(furan-2-yl)-N^2-(5-methyloxazol-3-yl)-N^4-(piperidin-4-yl)-2,4-diaminopyrimidine], greater than 10 µM.
On to `N#Cc1ccc(Nc2ncc(-c3ccco3)c(NC3CCNCC3)n2)cn1` [Compound 17, 5-(furan-2-yl)-N^2-(2-cyanopyridin-5-yl)-N^4-(piperidin-4-yl)-2,4-diaminopyrimidine], for which the IC50 in test [1] was 2.68 µM; in [2], 0.342 µM; in [3], 0.536 µM; in test [4], 0.044 µM; in test [5], 3.34 µM; in [6] it was 1.8 µM. In addition, the IC50 in [7] was 1.44 µM; in test [8], 3.17 µM; in [9] it was 2.77 µM; in test [10], 0.774 µM; in test [11], 0.708 µM; in test [12], 4.71 µM.
Regarding `Cn1cc(-c2cnc(Nc3ccc(C#N)nc3)nc2N[C@H]2CCCNC2)cn1` [Compound 21, (S)-5-(1-methyl-1H-pyrazol-4-yl)-N^2-(2-cyanopyridin-5-yl)-N^4-(piperidin-3-yl)-2,4-diaminopyrimidine], the half-maximal inhibitory concentration (IC50) amounted to 1.39 µM in [1]; 0.253 µM in test [2]; 0.401 µM in test [3]; 0.035 µM in test [4]; 3.6 µM in [5]; 2.56 µM in [6]. Besides, the IC50 came to 0.842 µM in test [7]; 2.11 µM in test [8]; 1.54 µM in [9]; 1.02 µM in [10]; 0.608 µM in [11]; 3.24 µM in test [12].
On to `Cn1cc(-c2cnc(Nc3ccc(C#N)cn3)nc2NC2CCNCC2)cn1` [Compound 26, 5-(1-methyl-1H-pyrazol-4-yl)-N^2-(3-cyanopyridin-6-yl)-N^4-(piperidin-4-yl)-2,4-diaminopyrimidine], for which the half-maximal inhibitory concentration (IC50) at Chk1 protein kinase was greater than 10 µM.
Still for that read-out and setting: in the case of `Cn1cc(-c2cnc(Nc3cnc(C#N)cn3)nc2NC2CCNCC2)cn1` [Compound 27, 5-(1-methyl-1H-pyrazol-4-yl)-N^2-(2-cyanopyrazin-5-yl)-N^4-(piperidin-4-yl)-2,4-diaminopyrimidine] it was greater than 10 µM; in that of `N#Cc1ccc(Nc2ncc(Br)cn2)cn1` [Compound 30, 5-bromo-N-(2-cyanopyridin-5-yl)-2-aminopyrimidine], greater than 10 µM.
The same measure, in the same setting: in the case of `N#Cc1ccc(Nc2ncc(-c3ccccc3N)cn2)cn1` [Compound 31, 5-(2-aminophenyl)-N-(2-cyanopyridin-5-yl)-2-aminopyrimidine] it was greater than 10 µM; in that of `N#Cc1ccc(Nc2ncc(-c3ccccc3NCC3CCNCC3)cn2)cn1` [Compound 33, 5-(2-(piperidin-4-methyl)aminophenyl)-N-(2-cyanopyridin-5-yl)-2-aminopyrimidine], greater than 10 µM.
Still for that read-out and setting: in the case of `N#Cc1ccc(Nc2ncc(C(F)(F)F)c(NCC3CCNCC3)n2)cn1` [Compound 34, 5-trifluoromethyl-N^2-(2-cyanopyridin-5-yl)-N^4-(piperidin-4-methyl)-2,4-diaminopyrimidine] it was less than 1 µM.
As to `N#Cc1ccc(Nc2ncc(C(F)(F)F)c(NC3CCNCC3)n2)cn1` [Compound 35, 5-trifluoromethyl-N^2-(2-cyanopyridin-5-yl)-N^4-(piperidin-4-yl)-2,4-diaminopyrimidine], at Chk1 protein kinase, the half-inhibitory concentration (IC50) is less than 1 µM.
With `N#Cc1ccc(Nc2ncc(C(F)(F)F)c(N[C@@H]3CCCNC3)n2)cn1` [Compound 36, (R)-5-trifluoromethyl-N^2-(2-cyanopyridin-5-yl)-N^4-(piperidin-3-yl)-2,4-diaminopyrimidine], the IC50 against Chk1 protein kinase is less than 1 µM.
